Measured values as given in PMC5574226, “A Liquid Chromatography-Tandem Mass Spectrometry Method for Evaluation of Two Brands of Enalapril 20 mg Tablets in Healthy Human Volunteers” (Journal of Analytical Methods in Chemistry, 2017).
Where a name gives a salt, the structure may show the parent alone. Read-outs that look alike come from different tables or passages of the source.

Assays:
[1] = LC-MS/MS method; cited from earlier work
[2] = cited from earlier work
[3] = Stability of enalapril and enalaprilat in spiked plasma under different storage conditions; type: physicochemical, human; details: for Stability: n = 6; for Stability test results: spiked plasma and stock solutions, room temperature for 20 hrs, freeze-thaw cycles, autosampler, accelerated stability
From the text: (4) Stability. Stability validation was done in triplicate run for low, mid, and high QC samples and calculated from spiked calibration curve. […]

[4] = design: method as in PMID 27437883; details: hospitalizing type 2 diabetes mellitus patients, overall and high-risk subgroups; cited from earlier work
[5] = design: method as in doi:10.5012/bkcs.2004.25.6.878; details: after oral administration of enalapril, LC-MS method; cited from earlier work
[6] = single oral intake of 20 mg of enalapril, 24 healthy subjects, GC-MS method; cited from earlier work
[7] = Bioequivalence study of two enalapril 20 mg tablet formulae, plasma levels by LC-MS/MS; type: in vivo, human; details: single oral dose 20 mg, 30 healthy male volunteers
Experimental: Protein precipitation were done for each sample by using acetonitrile. The mobile phase was prepared by mixing of 70% methanol and 30% of a mixture of 20 mM ammonium acetate and 0.2 mM formic acid, while the stationary phase was RP-C18 column (50 × 4.0 mm ID, 5 μm). The column was maintained at 40°C, while the autosampler temperature was 4°C. The flow rate was 1.0 ml/min. The plasma levels of the analytes were measured after a single dose of 20 mg enalapril tablets under fasting conditions.
In this study we applied a clinical study similar to that of [16] with modification. Thirty healthy adult male volunteers participated in this study after signing an informed consent. […]
After fasting period (12 hrs, overnight), each volunteer was given an oral dose containing 20 mg of enalapril either “A, reference” or “B, tested” formula with 200 mL of water in the sequence determined by randomization. […]
The pharmacokinetic parameters considered for assessment of the bioequivalence study between the reference drug and test drug were as follows: maximum plasma concentration (Cmax), area under plasma concentration/time plot until the last quantifiable value (AUC0–72), auxiliary parameters, time of the maximum plasma concentration (tmax), elimination half-life time (t-half), and area under plasma concentration/time plot extrapolated to infinity (AUC0–∞). […]

[8] = Accelerated stability at −30.0°C for 30 days, QC 3 ng/ml, plasma
[9] = Accelerated stability at −30.0°C for 30 days, QC 100 ng/ml, plasma
[10] = Accelerated stability at −30.0°C for 30 days, QC 160 ng/ml, plasma
[11] = Autosampler stability 24 h at 4°C, QC 3 ng/ml
[12] = Autosampler stability 24 h at 4°C, QC 100 ng/ml
[13] = Autosampler stability 24 h at 4°C, QC 160 ng/ml
[14] = Freeze and thaw stability at −20°C (3 cycles), QC 3 ng/ml, plasma
[15] = Freeze and thaw stability at −20°C (3 cycles), QC 100 ng/ml, plasma
[16] = Room temperature stability for 10 h, QC 3 ng/ml, plasma
[17] = Room temperature stability for 10 h, QC 100 ng/ml, plasma
[18] = Room temperature stability for 10 h, QC 160 ng/ml, plasma

Row | SMILES | AUC0–t [1] [ng·h/mL] | AUC0–∞ [1] [ng·h/mL] | Cmax [1] [ng/mL] | T1/2 [1] [h] | tmax [1] [h] | Stability [3, 8] [%] | Stability [3, 9] [%] | Stability [3, 10] [%] | Stability [3, 11] [%] | Stability [3, 12] [%] | Stability [3, 13] [%] | Stability [3, 14] [%] | Stability [3, 15] [%] | Stability [3, 16] [%] | Stability [3, 17] [%] | Stability [3, 18] [%] | Stability test results [3] | other results
1 | C[C@H](N[C@@H](CCc1ccccc1)C(=O)O)C(=O)N1CCC[C@H]1C(=O)O [enalaprilat] | 401 ± 89 | 420 ± 91 | 47.5 ± 12.4 | 6.71 ± 2.22 | 4.20 ± 1.06 | 110.47 | 103.62 | 96.68 | 100.94 | 99.93 | 102.09 | 95.31 | 96.70 | 98.02 | 98.47 | 100.17 | greater than 85% | Half-life [2]: 30 to 35 h; Time of maximum plasma concentration ([2]; enalaprilat after administration of enalapril): 3 to 4 h; Stability ([3]; Freeze and thaw stability at −20°C (3 cycles), QC 160 ng/ml, plasma): 101.18%
2 | N[C@@H](CC(=O)N1CCn2c(nnc2C(F)(F)F)C1)Cc1cc(F)c(F)cc1F [sitagliptin] |  |  |  |  |  |  |  |  |  |  |  |  |  |  |  |  |  | Effect on the risk for heart failure [4]: did not affect
3 | CCOC(=O)[C@H](CCc1ccccc1)N[C@@H](C)C(=O)N1CCC[C@H]1C(=O)O [enalapril, (S)-1-(N-(1-(ethoxycarbonyl)-3-phenylpropyl)-L-alanyl)-Lproline (Z)-2-butenedioate salt] | 136 ± 36 | 138 ± 36 | 90.5 ± 28.4 | 1.35 ± 0.61 | 0.860 ± 0.310 | 97.81 | 96.59 | 85.10 | 95.83 | 98.34 | 95.40 | 96.45 | 98.54 | 99.57 | 101.64 | 103.66 | greater than 85% | Maximum plasma concentration (Cmax), mean [5]: 102 ± 39 ng/mL; Time to maximum plasma concentration (tmax) [5]: 0.96 ± 0.36 h; Cmax, mean [6]: 72.9 ± 41.6 ng/mL; tmax [6]: 4.0 ± 1.4 h; Bioavailability ([2]; absorbed from the gastrointestinal tract): 60–70%; Plasma level after 4 hrs ([2]; after 4 hrs): < 10 ng/mL; Effect of presence of food in the GI tract on absorption [2]: not affected; Terminal half-life [2]: about 2 h; Time to maximum plasma concentration ([2]; enalapril, after oral administration): ≤ 1 h; Tolerability in volunteers [7]: well tolerated
